Values quoted from earlier work in patent US20230035389A1, “ANTIVIRAL COMPOSITION BASED ON EXTRACTS OF […] […] USEFUL FOR TREATING LESIONS CAUSED BY […] VIRUS” (PONTIFICIA UNIVERSIDAD CATOLICA DE CHILE, priority 2019, published 2023).

Tested on: herpes simplex virus
Settings: topical, background statement

SMILES: Nc1nc2c(ncn2COCCO)c(=O)[nH]1 [Acyclovir]
- Reduction of the duration of herpetic lesions: 1.0 days
